Measured values published in DBAASP.
Values after ≈ are worked out from the molar mass of the structure shown. Each block holds one molecule with its values, some of them ahead of it.

What was measured:
Test in all cases: ≥ marks a high value that may be exact or a test limit, other limits are often not marked, values filed in µg/mL are converted to µM
[1] = system: Neurospora crassa
[2] = system: Bacillus megaterium
[3] = system: Pectobacterium carotovorum
[4] = system: Trichoderma viride
[5] = system: Aerococcus viridans
[6] = system: Escherichia coli D31
[7] = system: Bacillus subtilis
[8] = system: Ascochyta pisi
[9] = system: Micrococcus luteus
[10] = system: Botrytis cinerea
[11] = system: Klebsiella pneumoniae
[12] = system: Fusarium haematococcum
[13] = system: Alternaria brassicicola
[14] = system: Pediococcus acidilactici
[15] = system: Enterobacter cloacae
[16] = system: Escherichia coli D22
[17] = system: Fusarium culmorum
[18] = system: Staphylococcus epidermidis
[19] = system: Escherichia coli
[20] = system: Staphylococcus aureus A170
[21] = system: Salmonella typhimurium
[22] = system: Vibrio parahaemolyticus
[23] = system: Vibrio anguillarum
[24] = system: Staphylococcus aureus
[25] = system: Vibrio alginolyticus
[26] = system: Vibrio fluvialis
[27] = system: Pseudomonas aeruginosa CGMCC 1.860
[28] = system: Pseudomonas aeruginosa 0108
[29] = system: Staphylococcus epidermidis ATCC 35984
[30] = system: Bacillus subtilis ATCC 23857
[31] = system: Pseudomonas aeruginosa ATCC 15692
[32] = system: Pseudomonas aeruginosa ATCC 27853
[33] = system: Cladosporium sp.
[34] = system: Saccharomyces cerevisiae
[35] = system: Staphylococcus aureus ATCC 9144
[36] = system: Candida albicans ATCC 10231
[37] = system: Escherichia coli MC4100 NR698
[38] = system: Staphylococcus epidermidis 5179-R1
[39] = system: Corynebacterium glutamicum ATCC 13032
[40] = system: Escherichia coli ATCC 25922
[41] = system: Aureobasidium pullulans
[42] = system: Candida glabrata 090902
[43] = system: Enterococcus faecium 091299
[44] = system: Psychrobacter faecalis X29
[45] = system: Staphylococcus aureus ATCC 25923
[46] = system: Enterobacter cloacae CGMCC 1.57
[47] = system: Enterococcus faecalis 981
[48] = system: Klebsiella pneumoniae 08040724
[49] = system: Nocardia asteroides 201118

- MIC [1]: 14.1 µM (≈ 27.4 µg/mL)
- MIC [2]: 7.07 µM (≈ 13.7 µg/mL)
- MIC [3]: 28.3 µM (≈ 54.8 µg/mL)
- MIC [4]: 28.3 µM (≈ 54.8 µg/mL)
- MIC [5]: 1.73 µM (≈ 3.35 µg/mL)
- MIC [6]: 0.849 µM (≈ 1.64 µg/mL)
- MIC [7]: 28.3 µM (≈ 54.8 µg/mL)
- MIC [8]: 28.3 µM (≈ 54.8 µg/mL)
- MIC [9]: 3.54 µM (≈ 6.85 µg/mL)
- MIC [10]: 14.1 µM (≈ 27.4 µg/mL)
- MIC [11]: 3.54 µM (≈ 6.85 µg/mL)
- MIC [12]: 7.07 µM (≈ 13.7 µg/mL)
- MIC [13]: 7.07 µM (≈ 13.7 µg/mL)
- MIC [14]: 28.3 µM (≈ 54.8 µg/mL)
- MIC [15]: 7.07 µM (≈ 13.7 µg/mL)
- MIC [16]: 0.849 µM (≈ 1.64 µg/mL)
- MIC [17]: 14.1 µM (≈ 27.4 µg/mL)
SMILES: CC[C@H](C)[C@H](NC(=O)[C@@H](NC(=O)[C@@H]1CCCN1C(=O)[C@@H](N)C(C)C)[C@@H](C)CC)C(=O)N[C@@H](Cc1ccc(O)cc1)C(=O)N[C@H]1CSSC[C@@H](C(=O)N[C@@H](CCC(N)=O)C(=O)N[C@@H](CCCN=C(N)N)C(=O)N[C@@H](CCSC)C(=O)O)NC(=O)[C@H](CCCCN)NC(=O)CNC(=O)[C@H]([C@@H](C)O)NC(=O)[C@H](CCCN=C(N)N)NC(=O)[C@H](CCCN=C(N)N)NC(=O)[C@H](CC(N)=O)NC1=O [VPIIYCNRRTGKCQRM]

- MIC [18]: 21.5 µM (≈ 30 µg/mL)
- MIC [19]: > 71.8 µM
- MIC [20]: 17.9 µM (≈ 25 µg/mL)
- MIC [21]: ≥ 71.8 µM
SMILES: CC[C@H](C)[C@H](NC(=O)[C@@H]1CCCN1C(=O)[C@H](CC(C)C)NC(=O)[C@@H](N)CC(C)C)C(=O)N[C@H](C(=O)NCC(=O)N[C@@H](CC(N)=O)C(=O)N[C@@H](CC(C)C)C(=O)N[C@@H](CC(C)C)C(=O)N[C@@H](CCCCN)C(=O)N[C@@H](CO)C(=O)N[C@@H](CC(C)C)C(=O)N[C@@H](CC(C)C)C(=O)O)C(C)C [LLPIVGNLLKSLL]

- MIC [23]: ≥ 50 µM
- MIC [24]: 50 µM (≈ 150 µg/mL)
- MIC [19]: 50 µM (≈ 150 µg/mL)
- MIC [25]: ≥ 50 µM
- MIC [26]: 25 µM (≈ 75 µg/mL)
SMILES: CSCC[C@H](NC(=O)[C@H](CO)NC(=O)[C@H](CC(C)C)NC(=O)[C@H](Cc1cnc[nH]1)NC(=O)[C@H](CO)NC(=O)[C@@H](N)CCC(N)=O)C(=O)N[C@H]1CSSC[C@@H](C(=O)N[C@@H](CCCCN)C(=O)N[C@@H](Cc2ccccc2)C(=O)O)NC(=O)[C@@H]2CSSC[C@@H]3NC(=O)[C@@H]4CSSC[C@H](NC(=O)[C@H](Cc5ccc(O)cc5)NC(=O)[C@H](CCCN=C(N)N)NC1=O)C(=O)N[C@@H](CSSC[C@H](NC(=O)CNC(=O)[C@H](CCCCN)NC(=O)[C@H](CC(N)=O)NC(=O)[C@H](CC(N)=O)NC(=O)[C@H](CCCN=C(N)N)NC3=O)C(=O)NCC(=O)N[C@@H](Cc1ccccc1)C(=O)N2)C(=O)N[C@@H](CC(N)=O)C(=O)N4 [QSHLSMCRYCCNCCRNNKGCGFCCKF]
- MIC [22]: ≥ 50 µM

- MIC [27]: 6.25 µM (≈ 10.2 µg/mL)
- MIC [28]: 12.5 µM (≈ 20.3 µg/mL)
SMILES: CC[C@H](C)[C@H](N)C(=O)N[C@@H](CCCCN)C(=O)N[C@@H](CCCCN)C(=O)N[C@H](C(=O)N[C@@H](Cc1c[nH]c2ccccc12)C(=O)N[C@@H](CO)C(=O)N[C@@H](CCCCN)C(=O)N[C@H](C(=O)N[C@@H](CCCCN)C(=O)N[C@@H](CCCCN)C(=O)N[C@@H](CC(C)C)C(=O)N[C@@H](CC(C)C)C(=O)N[C@@H](CCCCN)C(N)=O)[C@@H](C)CC)[C@@H](C)CC [IKKIWSKIKKLLK]

- MIC [29]: ≥ 100 µM
- MIC [30]: ≥ 100 µM
- MIC [31]: ≥ 100 µM
- MIC [32]: > 100 µM
- MIC [33]: ≥ 100 µM
- MIC [34]: ≥ 100 µM
- MIC [35]: ≥ 100 µM
- MIC [36]: > 100 µM
- MIC [37]: ≥ 100 µM
- MIC [38]: ≥ 100 µM
- MIC [39]: ≥ 100 µM
- MIC [40]: > 100 µM
- MIC [41]: ≥ 100 µM
SMILES: CC[C@H](C)[C@H](NC(=O)[C@@H](N)CC(=O)O)C(=O)NCC(=O)N[C@@H](CCCCN)C(=O)N[C@@H](Cc1ccc(O)cc1)C(=O)N[C@@H](CS)C(=O)NCC(=O)N[C@@H](Cc1ccc(O)cc1)C(=O)N[C@@H](C)C(=O)N[C@@H](Cc1cnc[nH]1)C(=O)N[C@@H](C)C(=O)N[C@@H](CC(C)C)C(=O)N[C@@H](CC(N)=O)C(N)=O [DIGKYCGYAHALN]

- MIC [42]: 6.3 µM (≈ 15.7 µg/mL)
- MIC [43]: ≥ 100 µM
- MIC [36]: 50 µM (≈ 125 µg/mL)
- MIC [44]: 25 µM (≈ 62.3 µg/mL)
- MIC [45]: 6.3 µM (≈ 15.7 µg/mL)
- MIC [46]: ≥ 100 µM
- MIC [47]: 3.1 µM (≈ 7.73 µg/mL)
- MIC [48]: ≥ 100 µM
- MIC [40]: 100 µM (≈ 249 µg/mL)
- MIC [49]: 3.1 µM (≈ 7.73 µg/mL)
SMILES: CC[C@H](C)[C@H](NC(=O)CNC(=O)[C@@H](NC(=O)[C@H](C)NC(=O)[C@H](C)NC(=O)[C@H](CCCCN)NC(=O)[C@@H](NC(=O)[C@H](CC(C)C)NC(=O)CNC(=O)[C@@H]1CCCN1C(=O)[C@H](CC(C)C)NC(=O)[C@@H](N)Cc1ccccc1)[C@@H](C)CC)C(C)C)C(=O)NCC(=O)N[C@@H](CO)C(=O)N[C@H](C(=O)N[C@H](C(=O)N[C@@H](Cc1ccccc1)C(=O)N[C@H]1CSSC[C@@H](C(=O)O)NC(=O)[C@H](CCCCN)NC(=O)[C@H](CCCCN)NC(=O)[C@H](CO)NC(=O)[C@H]([C@@H](C)CC)NC(=O)[C@H](CCCCN)NC1=O)[C@@H](C)CC)[C@@H](C)O [FLPGLIKAAVGIGSTIFCKISKKC]
